For one data set, the target named is PRMT5/MEP50 (Homo sapiens, UniProt O14744). Briefly: Histone methyltransferase enzymatic assay, PRMT5/MEP50. Format: biochemical. The note with it: enzyme conc. 100 nM. The procedure: Histone methyltransferase assays were performed in 96-well half-area optiplates (PerkinElmer) at room temperature. All concentrations are final unless noted otherwise. Compounds were serially diluted in DMSO and the final DMSO concentration was 1%. A 24 μL reaction mixture contained compound, enzyme, 200 nM of nucleosome or histone substrate, 400 nM ^3H-SAM (83.1 Ci/mmol), 50 mM Tris-HCl (pH 8.0), 50 mM NaCl, 5 mM MgCl2, 1 mM DTT, and 0.01% Tween-20. The plate was sealed, mixed on a Titramax plate shaker at 1200 rpm for 30 sec, and incubated at room temperature for 60 min. The reaction was quenched by addition of 24 μL mixture containing 5 mg/mL PVT-PEI beads and 300 μM unlabeled SAM in water. The plate was sealed, mixed as previously noted, incubated overnight, and read on a TopCount plate reader (PerkinElmer).
Data was analyzed using GraphPad Prism 6.0 (La Jolla, CA). […] IC50 values were calculated as an average of at least two independent experiments.

Data set [1] is described as follows: Liver to plasma AUC ratio, cynomolgus monkey. Type of data set: in vivo, cynomolgus monkeys. The note with it: male, liver and plasma, po, 2.5 mg/kg, read-out: GS-080 liver to plasma AUC ratio. On the procedure: Rats and monkeys were dosed by oral gavage once with 1 mg/kg or 2.5 mg/kg, respectively. The rat study included a vehicle control group (water). Serial venous blood samples were taken at 0, 0.25, 0.5, 1, 2, 4, 6, 8, 12, and 24 hours post dose from each animal and collected into vacutainer tubes containing potassium oxalate/sodium fluoride (Thermo Fisher; BD367925) as the anti-coagulant and blood was centrifuged for plasma isolation. […] For monkey, liver samples were taken by biopsy at pre-dose, 1, 4, 24, 48, and 72 hours post dose (n = 2 per time point). Rat and monkey livers were weighed and immediately flash frozen in liquid nitrogen.
500 μL of cold HPLC grade water was added to each monkey liver biopsy sample and rat liver samples were diluted 3-fold with cold HPLC grade water. Diluted liver samples were homogenized between 1 and 3 minutes. 50 μL of plasma samples and homogenized liver samples were quenched with 200 μL of 0.05% formic acid in acetonitrile. […] An Agilent 1200 series binary pump (Santa Clara, CA; G1312A) was used for elution and separation of compounds with a Hypersil Gold C18 HPLC column (Thermo Fisher; 50 x 3.0 mm, 5 μm) over 6.75 minutes with 99–3% gradient of Mobile Phase A (1% acetonitrile in 2.5 mM ammonium formate aqueous solution pH 2.6) and 1–97% gradient Mobile Phase B (90% acetonitrile in aqueous 10 mM ammonium formate pH 6.8).

In a further data set the target is HMT or HDAC enzymes. Briefly: Panel of HMT and HDAC enzymes. Type of data set: biochemical. The following applies: no measurable inhibitory activity; read-out: IC50 against any of the HMT or HDAC enzymes tested. The procedure:
Histone methyltransferase assays were performed in 96-well half-area optiplates (PerkinElmer) at room temperature. All concentrations are final unless noted otherwise. Compounds were serially diluted in DMSO and the final DMSO concentration was 1%. […] The plate was sealed, mixed on a Titramax plate shaker at 1200 rpm for 30 sec, and incubated at room temperature for 60 min. […] The plate was sealed, mixed as previously noted, incubated overnight, and read on a TopCount plate reader (PerkinElmer). The HDAC-1 histone deacetylase assay was tested using the FLUOR DE LYS platform ([…]). Inhibition of SIRT-1 histone deacetylase was tested with the AlphaLISA detection system. All assays were conducted at room temperature with a final DMSO concentration of 1%. […] After a 60-minute incubation, the reaction was quenched with 10 μL AlphaLISA H3K4-specific Acceptor beads (1:200) in Epigenetics Buffer, and the reaction mixture was incubated for 60 min. The Donor beads were diluted 1:200 into Epigenetics Buffer in the dark and 10 μL of this mixture was added to each well and incubated for another 60 min in the dark. The assay plates were read on an Enspire plate reader (PerkinElmer) using a standard AlphaLISA program. […] Data was analyzed using GraphPad Prism 6.0 (La Jolla, CA). […] IC50 values were calculated as an average of at least two independent experiments.

The subject of another data set is H3K4me3:H3. Briefly: Global H3K4me3:H3 ratio by ELISA in HBV-infected PHH. The following applies: single pulse dose; day nine. Format: cell-based, human. The procedure: For the pulse dose regimen, medium containing compound was removed after two hours incubation and replaced with fresh maintenance medium every three to four days. Cells in the pulse dose experiment received only one dose of compound (Day = 0). Histones were enriched from tissue and PBMC samples using the AbCam total histone extraction kit (Cambridge, UK; ab113476) according to the manufacturer’s protocol after cell/tissue dissociation with an IKA T10 TURRAX homogenizer (Wilmington, NC; […] Histones were enriched from 500,000 to 750,000 PHH. PHH monolayers were washed once with cold (4°C) 1X DPBS (Dulbecco’s phosphate buffered saline; 21-031-CV, Corning Inc.). Cold triton extraction buffer (TEB): 1X DPBS, 0.5% triton X-100 (Sigma-Aldrich, T9284), 2 mM phenylmethylsulfonyl fluoride (PMSF; Thermo Fisher Scientific, 36978), was added to the cell monolayer at a density of 1 x 10^6 cells/mL. After 10-minute incubation in TEB at 4°C, the cell monolayer was scraped and cells were pelleted by centrifuged at 1200 rpm at 4°C for 10 minutes. […] Total protein concentration of all samples following histone enrichment was determined using a bicinchoninic acid (BCA) assay (Thermo Fisher Scientific; 23225). […] Absorbance of each well was measured at 450 nm within five minutes using a SpectraMax Plus 384 Microplate Reader (Molecular Devices; PLUS 384).
Background: An ELISA detects its analyte on a solid surface through an enzyme-linked reagent.

The values below come from publication PMC9728921, “Characterization of a KDM5 small molecule inhibitor with antiviral activity against hepatitis B virus” (PLOS ONE, 2022).

“Also recorded” adds a separate entry of the source.

PRMT5/MEP50, sequence (O14744 2-637): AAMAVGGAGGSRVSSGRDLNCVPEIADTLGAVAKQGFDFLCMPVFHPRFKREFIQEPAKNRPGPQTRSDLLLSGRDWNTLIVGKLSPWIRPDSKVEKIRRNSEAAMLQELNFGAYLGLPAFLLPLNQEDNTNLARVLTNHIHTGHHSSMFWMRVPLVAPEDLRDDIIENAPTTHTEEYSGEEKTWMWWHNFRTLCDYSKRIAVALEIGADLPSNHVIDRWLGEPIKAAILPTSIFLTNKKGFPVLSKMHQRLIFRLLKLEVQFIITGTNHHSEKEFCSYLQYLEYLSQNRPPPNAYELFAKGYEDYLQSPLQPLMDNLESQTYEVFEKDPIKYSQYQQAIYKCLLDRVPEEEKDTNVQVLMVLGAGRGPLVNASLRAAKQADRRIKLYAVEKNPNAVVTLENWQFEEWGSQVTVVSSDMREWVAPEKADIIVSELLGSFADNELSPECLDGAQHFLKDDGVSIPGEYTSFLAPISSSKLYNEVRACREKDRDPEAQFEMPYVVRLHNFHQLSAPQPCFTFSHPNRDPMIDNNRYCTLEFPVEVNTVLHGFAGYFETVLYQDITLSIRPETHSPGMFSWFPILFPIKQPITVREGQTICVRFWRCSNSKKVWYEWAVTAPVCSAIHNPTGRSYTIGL
PRMT5/MEP50, sequence (Q9BQA1 3-342 partner limits assumed): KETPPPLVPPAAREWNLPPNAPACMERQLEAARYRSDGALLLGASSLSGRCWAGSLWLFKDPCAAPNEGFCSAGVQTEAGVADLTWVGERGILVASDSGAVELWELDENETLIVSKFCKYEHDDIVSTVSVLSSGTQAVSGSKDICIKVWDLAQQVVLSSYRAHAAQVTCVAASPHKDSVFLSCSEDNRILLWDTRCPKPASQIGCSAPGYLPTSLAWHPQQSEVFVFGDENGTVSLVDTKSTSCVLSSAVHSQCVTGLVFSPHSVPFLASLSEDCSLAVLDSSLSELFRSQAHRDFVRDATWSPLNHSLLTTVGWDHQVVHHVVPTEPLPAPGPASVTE

For orientation: IC50 means the concentration that inhibits the measured activity by half. For the compound `CCN(CCN(C)C)C(=O)CNCc1cc(C(=O)O)ccn1` [GS-080], the IC50 against PRMT5/MEP50 and on HMT or HDAC enzymes was greater than 100 µM in each case. The Kp in data set [1] was found to be 176.

With `CCOC(=O)c1ccnc(CNCC(=O)N(CC)CCN(C)C)c1` [GS-5801], in the data set on H3K4me3:H3, the “H3K4me3:H3 level” value is “almost back to baseline levels; also recorded: near baseline levels”.
